Data taken from US20080090916A1, “Compounds for Treating Urinary Incontinence” (priority 2005, published 2008).

Experiments:
mini pigs = conditions: 1 mg/kg i.v., at maximum effect; cited from earlier work
[1] = Influence of intra-anally applied 1R,2S-methoxamine gel on micturition in subjects; format: in vivo; conditions: experimental studies with appreciable systemic levels
Method: The study was conducted according to the following protocol:
• a) 1% by weight 1R,2S-methoxamine in 4% w/w gel • b) 3% by weight 1R,2S-methoxamine in 4% w/w gel • The 4% w/w gel comprises 4 g of hydroxypropylmethyl cellulose in 96 ml of 0.5M acetate buffer. 1% by weight 1R,2S-methoxamine in 4% w/w gel comprises 1 g of 1R,2S-methoxamine in 99 g of the 4% gel. Investigation
In a study for other purposes including 44 subjects, each subject had either the 3% methoxamine gel or the 1% methoxamine gel applied intra-anally. About 1 g of gel was used.

[2] = test system: pig vesicourethral junction sphincter muscle; experiment: Functional assay: dose response on isolated pig vesicourethral junction sphincter muscle strips; format: cell-based; conditions: for EC50: Sus scrofa, contraction, from dose response curve, read-out: relative potencies (EC50); for maximum response: mean ±SEM; for contractile response of muscle strip (representative traces): compound alone, FIG. 1
From the text: Samples of female white landrace pig bladder and urethra were obtained from freshly slaughtered pigs at the local abattoir. The pigs were killed by exsanguination after initial stunning by electric shock. The anus, rectum, bladder and urethra were then excised en bloc during evisceration and immediately transferred into pre oxygenated Krebs' solution (1 mmol/l: NaCl 120, KCl 5.9 NaHCO3 15.4, CaCl2 2.5, MgCl2 1.2, glucose 11.5) and transported to the laboratory, where they were stored in the refrigerator (at 4° C.) until ready to be processed.
The location of the vesicourethral junction sphincter was then identified. The bladders were inflated via a transurethral catheter with 200 ml. fluid. The fluid was then gently squeeze towards the outlet, until a sharp narrowing of the bladder base becomes apparent (Dass, 1997; Dass et al., 2001). Tissue sections from this region were then denuded of urothelium, and dissected transversely into a number of muscle strips.
Muscle strips measuring about 5-6 mm by 2-3 mm with an average weight of 7 mg were dissected, fine (5/0) silk threads were tied at each end of the strips and each strip mounted vertically in a 0.2 ml capacity, perspex organ bath between two recessed platinum electrodes through which electrical field stimulation (EFS) could be delivered. Strips were constantly superfused with Krebs' solution (37° C.) at a rate of 1.5 ml 1 min. The Krebs' solutions were gassed with 97% oxygen 3% carbon dioxide. Drugs were delivered by substituting drug containing solutions of the desired concentration for Krebs' solutions.
The apparatus comprised of six organ baths in parallel allowing the study of six strips simultaneously as described by Brading and Sibley (1983). Each channel was calibrated with a 1 g weight attached to the transducer before each experiment, and tissues were tensioned to 1 g after mounting. Isomeric tension generated by the strips was measured using isomeric force displacement transducers, Pioden Dynamometer UFI transducers (Pioden Controls Ltd, Canterbury, Kent) or AD Instruments MLT050/D force transducers, amplified (Harvard Transducer/Amplifier, Harvard Apparatus Ltd, Edenbridge, Kent) and analyzed using MacLab Data Acquisition system (AD Instruments, Sydney, Australia) or AD Instruments OCTAL Bridge Amplifier connected to Power Lab/8SP (AD Instruments, Sydney, Australia) and Chart v3.6 software (Macintosh) or Chart v5 (PC).
Dose response curves for the various compounds were constructed by testing one drug on a pair of strip in each experiment. The preparations were subjected to a sequence of successive 10 s […] applications of increasing doses of drugs with intervening washout periods.
1R,2S-methoxamine hydrochloride, the compound of formula (Ia) and the compound of formula (III) were made available by Norgine International Research, Middlesex.
Responses were reported as either grams of tension or % maximum force and given as mean values ±SEM. EC50 values were used as a measure of potency. The EC50 values were measured from the graph of dose response curve using the kaleidograph graphical software applications. Results were assessed using statistical analysis software, StatView 5.0 (SAS Institute Inc.) using ANOVA followed by Fisher's test. Significant difference between data was assumed with p<0.05.

[3] = test system: vesicourethral junction sphincter muscle strips; experiment: Enzyme assay: regeneration of 1R,2S-methoxamine from compound (Ia) by gamma glutamyl transferase, reaction product tested on muscle strips; format: cell-based, pig; conditions: 0.3 mM
Method: Regeneration of 1R,2S-methoxamine from the Compound of Formula (Ia)
Into a clean glass vial (1 ml volume) the following reaction mixtures were pipetted as follows:
200 μl compound of formula (Ia), 10 mg/ml in Tris buffer (mol. wt. 376, therefore=2 mg compound of formula (Ia)=5.3 μMoles), 100 μl solution E
Reaction product of groups 1, 2 and 3 were only tested for biological activity after 30 minutes of incubation period at 37° C. while that of group 4 were also tested after, 10, 30 and 60 minutes of incubation period. A 5 h group of which reaction mixture indicated in group four were diluted by two fold after 30 min incubation were also tested for biological activity.
Gamma glutamyl transferase, 2-1-18 porcine kidney was purchased from Calzyme Labs San Luis Obispo, Calif. 93401 USA, glyclglycine was obtained from Acros Organics, New Jersey, USA while L-glutamic acid 5-(4-nitroanilide) was purchased from Fluka Chemie Switzerland.
The reaction mixture was incubated in HOT BOX oven, size one incubator made by Gallenpark, England, while the absorbance was measured (@λmax 405 nm), using Anthos 2020 UV/VIS spectrophotometer.
Representative traces of pig vesicourethral junction sphincter muscle response to various enzyme reaction products are shown in FIG. 3 and representative traces of pig proximal sphincter muscle response to various enzyme reaction products are shown in FIG. 4. The enzyme reaction products tested are as follows: • FIG. 3a-50 mM Tris HCl buffer; • FIG. 3b-50 mM Tris HCl buffer, gamma glutamyl transferase. • FIG. 3c-50 mM Tris HCl buffer, MgCl2.6H2O, glycylglycine, compound of formula (Ia); • FIG. 4a-50 mM Tris HCl buffer, MgCl2.6H2O, glycylglycine, gamma glutamyl transferase, compound of formula (Ia); • FIG. 4b-0.3 mM 1R,2S-methoxamine.

Compound | rise in diastolic pressure (mini pigs) [%] | rise in systolic pressure (mini pigs) [%] | unwanted systemic side effects [1] | EC50 [2] [µM] | maximum response ([2]; at a concentration of 10^−3M) [g] | contractile response of muscle strip (representative traces) [2] | less effective than Mg^2+-glycylglycine-compound of formula (Ia)-enzyme mixture [3] [%] | contractile (bladder) response ([3]; no enzyme) [g] | biological activity retained relative to 1R,2S-methoxamine [2] | maximum response ([2]; observed at 10^−2M) [g]
COc1ccc(OC)c([C@@H](O)[C@H](C)N)c1 [1R,2S-methoxamine, (1R,2S)-2-amino-1-(2,5-dimethoxyphenyl)propan-1-ol] | 57 | 23 | elevation of blood pressure | 56.2 | 1.12 | pronounced well defined contractile response | 29 | 1.15 | – | –
COc1ccc(OC)c([C@@H](O)[C@H](C)NC(=O)[C@@H](N)CCC(=O)O)c1 [compound of formula (III), (S)-4-Amino-4-[(1S,2R)-2-(2,5-dimethoxyphenyl)-2-hydroxy-1-methyl-ethylcarbamoyl]butyric acid] | – | – | – | 495 | – | well defined contractile response | – | – | approximately 10% | 1.33
